Biological target: human orexin-2 receptor (Homo sapiens (Human), UniProt O43614)
Test: Human orexin 2 receptor radioligand binding ([3H]-EMPA competition)
Details: HEK293 cells stably expressing human orexin-2 receptor; [3H]-EMPA 5 nM final; apparent Ki=IC50/(1+C/Kd), Kd=2 nM; read-out: OR 2 Ki

Chain of human orexin-2 receptor (O43614 whole entry): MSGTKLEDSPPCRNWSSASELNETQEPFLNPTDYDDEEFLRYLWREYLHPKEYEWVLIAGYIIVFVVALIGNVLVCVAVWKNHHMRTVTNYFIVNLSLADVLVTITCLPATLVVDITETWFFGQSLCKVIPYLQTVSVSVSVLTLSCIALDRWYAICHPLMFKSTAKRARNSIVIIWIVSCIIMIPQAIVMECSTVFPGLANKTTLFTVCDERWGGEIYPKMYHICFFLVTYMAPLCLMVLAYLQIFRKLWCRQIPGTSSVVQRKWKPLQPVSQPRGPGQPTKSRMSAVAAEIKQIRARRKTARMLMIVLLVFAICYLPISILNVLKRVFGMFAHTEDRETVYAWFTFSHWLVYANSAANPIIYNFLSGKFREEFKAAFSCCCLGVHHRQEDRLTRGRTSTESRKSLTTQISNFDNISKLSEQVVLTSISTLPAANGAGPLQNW

Row | SMILES | Ki [nM]
1 | COc1cc(C)ccc1C(=O)N1CC2CN(c3nc(C)cc(C)n3)CC2C1 (stereo not shown) [Example 276, (5-(4,6-Dimethylpyrimidin-2-yl)hexahydropyrrolo[3,4-c]pyrrol-2(1H)-yl)(2-methoxy-4-methylphenyl)methanone] | 2950
2 | Cc1ccnc(N2CC3CN(C(=O)c4c(C)ccc5ccccc45)CC3C2)n1 (stereo not shown) [Example 50, 2-[(2-Methylnaphthalen-1-yl)carbonyl]-5-(4-methylpyrimidin-2-yl)octahydro-pyrrolo[3,4-c]pyrrole] | 215
3 | Cc1ccnc(-c2cc(F)ccc2C(=O)N2CC3CN(c4nc(C)cc(C)n4)CC3C2)c1 (stereo not shown) [Example 343, (5-(4,6-Dimethylpyrimidin-2-yl)hexahydropyrrolo[3,4-c]pyrrol-2(1H)-yl)(4-fluoro-2-(4-methylpyridin-2-yl)phenyl)methanone] | 36
4 | Cc1cc(N(C)C)nc(N2CC3CN(C(=O)c4ccccc4-n4nccn4)CC3C2)n1 (stereo not shown) [Example 119, N,N,6-Trimethyl-2-[5-{[2-(2H-1,2,3-triazol-2-yl)phenyl]carbonyl}hexahydropyrrolo[3,4-c]pyrrol-2(1H)-yl]pyrimidin-4-amine] | 51
5 | Cc1ccc(-n2nccn2)c(C(=O)N2CC3CN(c4nc(C)cnc4C)CC3C2)c1 (stereo not shown) [Example 123, [5-(3,6-Dimethyl-pyrazin-2-yl)-hexahydro-pyrrolo[3,4-c]pyrrol-2-yl]-(5-methyl-2-[1,2,3]triazol-2-yl-phenyl)-methanone] | 44
6 | O=C(c1ccccc1-c1cccs1)N1CC2CN(c3nccc(-c4cn[nH]c4)n3)CC2C1 (stereo not shown) [Example 62, 2-[4-(1H-Pyrazol-4-yl)pyrimidin-2-yl]-5-[(2-thiophen-2-ylphenyl)carbonyl]octahydro-pyrrolo[3,4-c]pyrrole] | 42
7 | O=C(c1ccccc1-c1ccccc1)N1CC2CN(c3nccc(-c4ccccc4)n3)CC2C1 (stereo not shown) [Example 164, 2-(Biphenyl-2-ylcarbonyl)-5-(4-phenylpyrimidin-2-yl)octahydropyrrolo[3,4-c]pyrrole] | 289
8 | COc1cc(N2CC3CN(C(=O)c4ccccc4-n4nccn4)CC3C2)nc(N(C)C)n1 (stereo not shown) [Example 5, 4-Methoxy-N,N-dimethyl-6-[5-{[2-(2H-1,2,3-triazol-2-yl)phenyl]carbonyl}hexahydropyrrolo-[3,4-c]pyrrol-2(1H)-yl]pyrimidin-2-amine] | 14
9 | Cc1nc(N2CC3CN(C(=O)c4ccccc4-c4ncn(C)n4)CC3C2)nc(C)c1C (stereo not shown) [Example 311, 2-{[2-(1-Methyl-1H-1,2,4-triazol-3-yl)phenyl]carbonyl}-5-(4,5,6-trimethylpyrimidin-2-yl)octahydropyrrolo[3,4-c]pyrrole] | 7
10 | Cc1cc(C)nc(N2CC3CN(C(=O)c4ccccc4-c4nccn4C)CC3C2)n1 (stereo not shown) [Example 39, [5-(4,6-Dimethyl-pyrimidin-2-yl)-hexahydro-pyrrolo[3,4-c]pyrrol-2-yl]-[2-(1-methyl-1H-imidazol-2-yl)-phenyl]-methanone] | 9000
11 | Cc1nc2ccccc2nc1N1CC2CN(C(=O)c3ccccc3-c3cccs3)CC2C1 (stereo not shown) [Example 65, 2-Methyl-3-{5-[(2-thiophen-2-ylphenyl)carbonyl]hexahydropyrrolo[3,4-c]pyrrol-2(1H)-yl}quinoxaline] | 228
12 | COc1cccc(C(=O)N2CC3CN(c4nc(C)cc(C)n4)CC3C2)c1-n1ccnn1 (stereo not shown) [Example 286, 2-(4,6-Dimethylpyrimidin-2-yl)-5-{[3-methoxy-2-(1H-1,2,3-triazol-1-yl)phenyl]carbonyl}octahydropyrrolo[3,4-c]pyrrole] | 10000
13 | COc1cc(N2CC3CN(C(=O)c4c(F)cccc4-n4nccn4)CC3C2)nc(N(C)C)n1 (stereo not shown) [Example 1, 4-[5-{[2-Fluoro-6-(2H-1,2,3-triazol-2-yl)phenyl]carbonyl}hexahydropyrrolo[3,4-c]pyrrol-2(1H)-yl]-6-methoxy-N,N-dimethylpyrimidin-2-amine] | 37
14 | COc1ccnc(N2CC3CN(C(=O)c4ccccc4-c4cccc(F)c4)CC3C2)n1 (stereo not shown) [Example 51, 2-[(3′-Fluorobiphenyl-2-yl)carbonyl]-5-(4-methoxypyrimidin-2-yl)octahydro-pyrrolo[3,4-c]pyrrole] | 644
15 | Cc1cc(C(=O)O)nc(N2CC3CN(C(=O)c4c(F)cccc4-n4nccn4)CC3C2)n1 (stereo not shown) [Example 265, 2-(5-(2-Fluoro-6-(2H-1,2,3-triazol-2-yl)benzoyl)hexahydropyrrolo[3,4-c]pyrrol-2(1H)-yl)-6-methylpyrimidine-4-carboxylic acid] | 9000
16 | Cc1cc(C(C)C)nc(N2CC3CN(C(=O)c4cc(C(C)C)ccc4-n4nccn4)CC3C2)n1 (stereo not shown) [Example 300, 2-{[5-(1-Methylethyl)-2-(2H-1,2,3-triazol-2-yl)phenyl]carbonyl}-5-[4-methyl-6-(1-methylethyl)pyrimidin-2-yl]octahydropyrrolo[3,4-c]pyrrole] | 290
17 | O=C(c1ccccc1-n1nccn1)N1CC2CN(c3nccc(-c4ccccc4)n3)CC2C1 (stereo not shown) [Example 131, 2-(4-Phenylpyrimidin-2-yl)-5-{[2-(2H-1,2,3-triazol-2-yl)phenyl]carbonyl}octahydro pyrrolo[3,4-c]pyrrole] | 75

Row | SMILES | Ki [nM]
18 | COc1cccc(C(=O)N2CC3CN(c4nc(C)cc(C)n4)CC3C2)c1C (stereo not shown) [Example 92, 2-(4,6-Dimethylpyrimidin-2-yl)-5-[(3-methoxy-2-methylphenyl)carbonyl]octahydro-pyrrolo[3,4-c]pyrrole] | 766
19 | Cc1cc(C)nc(N2CC3CN(C(=O)c4ccccc4C#N)CC3C2)n1 (stereo not shown) [Example 202, 2-[5-(4,6-Dimethyl-pyrimidin-2-yl)-hexahydro-pyrrolo[3,4-c]pyrrole-2-carbonyl]-benzonitrile] | 5000
20 | COc1cc(OC)nc(N2CC3CN(C(=O)c4ccccc4-c4ccccn4)CC3C2)n1 (stereo not shown) [Example 70, 2-(4,6-Dimethoxypyrimidin-2-yl)-5-[(2-pyridin-2-ylphenyl)carbonyl]octahydro-pyrrolo[3,4-c]pyrrole] | 52
21 | O=C(c1ccccc1-c1nnc[nH]1)N1CC2CN(c3nc4ccccc4o3)CC2C1 (stereo not shown) [Example 86, 2-[5-{[2-(4H-1,2,4-Triazol-3-yl)phenyl]carbonyl}hexahydropyrrolo[3,4-c]pyrrol-2(1H)-yl]-1,3-benzoxazole] | 256
22 | COc1ccc(C(=O)N2CC3CN(c4nc(C)cc(C)n4)CC3C2)c(-c2ncccn2)c1 (stereo not shown) [Example 272, (5-(4,6-Dimethylpyrimidin-2-yl)hexahydropyrrolo[3,4-c]pyrrol-2(1H)-yl)(4-methoxy-2-(pyrimidin-2-yl)phenyl)methanone] | 33
23 | CN(C)c1nc(N2CC3CN(C(=O)c4ccc(F)cc4-n4nccn4)CC3C2)cc(C(F)(F)F)n1 (stereo not shown) [Example 111, [5-(2-Dimethylamino-6-trifluoromethyl-pyrimidin-4-yl)-hexahydro-pyrrolo[3,4-c]pyrrol-2-yl]-(4-fluoro-2-[1,2,3]triazol-2-yl-phenyl)-methanone] | 28
24 | Cc1cc(C)nc(N2CC3CN(C(=O)c4sccc4-c4ccccc4)CC3C2)n1 (stereo not shown) [Example 12, 2-(4,6-Dimethylpyrimidin-2-yl)-5-[(3-phenylthiophen-2-yl)carbonyl]octahydropyrrolo[3,4-c]pyrrole] | 46
25 | Cc1cc(C)nc(N2CC3CN(C(=O)c4ccc5ccccc5c4Br)CC3C2)n1 (stereo not shown) [Example 337, (1-Bromo-naphthalen-2-yl)-[5-(4,6-dimethyl-pyrimidin-2-yl)-hexahydro-pyrrolo[3,4-c]pyrrol-2-yl]-methanone] | 513
26 | COc1ccc(N2CC3CN(C(=O)c4ccccc4-c4cccs4)CC3C2)nc1 (stereo not shown) [Example 125, 2-(5-Methoxypyridin-2-yl)-5-[(2-thiophen-2-ylphenyl)carbonyl]octahydropyrrolo[3,4-c]pyrrole] | 901
27 | Cc1cc(C)nc(N2CC3CN(C(=O)c4ccc(F)c5ccccc45)CC3C2)n1 (stereo not shown) [Example 90, 2-(4,6-Dimethylpyrimidin-2-yl)-5-[(4-fluoronaphthalen-1-yl)carbonyl]octahydro-pyrrolo[3,4-c]pyrrole] | 38
28 | Cc1cncc(N2CC3CN(C(=O)c4ccc(F)cc4-n4nccn4)CC3C2)n1 (stereo not shown) [Example 158, 2-{[4-Fluoro-2-(2H-1,2,3-triazol-2-yl)phenyl]carbonyl}-5-(6-methylpyrazin-2-yl)octahydropyrrolo[3,4-c]pyrrole] | 55
29 | Cc1cc(N2CC3CN(C(=O)c4ccc(F)cc4-n4nccn4)CC3C2)nc(C(F)(F)F)n1 (stereo not shown) [Example 99, 2-{[4-Fluoro-2-(2H-1,2,3-triazol-2-yl)phenyl]carbonyl}-5-[6-methyl-2-(trifluoromethyl)pyrimidin-4-yl]octahydropyrrolo[3,4-c]pyrrole] | 15
30 | O=C(c1ccccc1-n1cccc1)N1CC2CN(c3nccc(-c4ccccc4)n3)CC2C1 (stereo not shown) [Example 24, 2-(4-Phenylpyrimidin-2-yl)-5-{[2-(1H-pyrrol-1-yl)phenyl]carbonyl}octahydro-pyrrolo[3,4-c]pyrrole] | 415
31 | Cc1cc(C)nc(N2CC3CN(S(=O)(=O)c4ccccc4-c4ccccc4)CC3C2)n1 (stereo not shown) [Example 358, 2-([1,1′-Biphenyl]-2-ylsulfonyl)-5-(4,6-dimethylpyrimidin-2-yl)octahydropyrrolo[3,4-c]pyrrole] | 230
32 | COc1ccnc(N2CC3CN(C(=O)c4ccccc4-c4ncn[nH]4)CC3C2)n1 (stereo not shown) [Example 154, 2-(4-Methoxypyrimidin-2-yl)-5-{[2-(1H-1,2,4-triazol-5-yl)phenyl]carbonyl}octahydropyrrolo[3,4-c]pyrrole] | 241
33 | CN(C)c1nc(N2CC3CN(C(=O)c4cc(F)ccc4-c4ncccn4)CC3C2)cc(C(F)(F)F)n1 (stereo not shown) [Example 109, 4-{5-[(5-Fluoro-2-pyrimidin-2-ylphenyl)carbonyl]hexahydropyrrolo[3,4-c]pyrrol-2(1H)-yl}-N,N-dimethyl-6-(trifluoromethyl)pyrimidin-2-amine] | 46

Same assay, conditions: read-out: OR 2 Ki

Row | SMILES | Ki [nM]
34 | Cc1nc(N2CC3CN(C(=O)c4c(F)cccc4-n4nccn4)CC3C2)cc(=O)[nH]1 (stereo not shown) [Example 252, 6-[5-{[2-Fluoro-6-(2H-1,2,3-triazol-2-yl)phenyl]carbonyl}hexahydropyrrolo[3,4-c]pyrrol-2(1H)-yl]-2-methylpyrimidin-4(3H)-one] | ≥ 10000

Reference: patent US8653263B2 (Janssen Pharmaceutica, priority 2009, dated 2014)
